Patent US10258701B2, “Labeled evans blue dye derivative for in vivo serum albumin labeling” (The United States of America, as represented by the …, priority 2015, dated 2019)
Values joined by “and” are separate entries in the source; they are usually repeats but may differ in a detail not shown here. Equal entries are not always repeated.

Molecular target: albumin (Homo sapiens, UniProt P02768)
Test: Saturation binding assay of NEB with albumin (bound/unbound separated by agarose gel electrophoresis)
Settings: unbound NEB quantified, read-out: dissociation constant (Kd) of NEB to albumin
From the text: In a particular embodiment, the compound of formula (I) (also referred to herein as “NEB”) wherein n is 0 can be synthesized in two steps starting from o-tolidine as shown in Scheme 1. 1, 4, 7-triazacyclononane-N,N,N″-triacetic acid-3HCl (“NOTA”) was first coupled to o-tolidine using diethyl cyanophosphonate to give NOTA-o-tolidine in 26% yield after preparative reversed-phase HPLC. NOTA-o-tolidine was then coupled to 1-amino-8-naphthol-2,4-disulfonic acid to give NEB through the formation of diazonium salt with a yield of 46.6%. The purity of the product was >98% based on HPLC analysis and the identity of the product was confirmed by LC-MS. This truncated version of Evans blue retained the binding ability with albumin since stable NEB/albumin complex was confirmed by LC/MS. The complex formation was also confirmed by saturation binding assay. The bound NEB could be separated from the unbound NEB using agarose gel electrophoresis. […] The ^18F-AlF complex of NEB is also referred to herein as ^18F-AlF-NEB. The ^64CU complex of NEB is also referred to herein as ^64Cu-NEB.

Chain of albumin (P02768 25-609, species assumed): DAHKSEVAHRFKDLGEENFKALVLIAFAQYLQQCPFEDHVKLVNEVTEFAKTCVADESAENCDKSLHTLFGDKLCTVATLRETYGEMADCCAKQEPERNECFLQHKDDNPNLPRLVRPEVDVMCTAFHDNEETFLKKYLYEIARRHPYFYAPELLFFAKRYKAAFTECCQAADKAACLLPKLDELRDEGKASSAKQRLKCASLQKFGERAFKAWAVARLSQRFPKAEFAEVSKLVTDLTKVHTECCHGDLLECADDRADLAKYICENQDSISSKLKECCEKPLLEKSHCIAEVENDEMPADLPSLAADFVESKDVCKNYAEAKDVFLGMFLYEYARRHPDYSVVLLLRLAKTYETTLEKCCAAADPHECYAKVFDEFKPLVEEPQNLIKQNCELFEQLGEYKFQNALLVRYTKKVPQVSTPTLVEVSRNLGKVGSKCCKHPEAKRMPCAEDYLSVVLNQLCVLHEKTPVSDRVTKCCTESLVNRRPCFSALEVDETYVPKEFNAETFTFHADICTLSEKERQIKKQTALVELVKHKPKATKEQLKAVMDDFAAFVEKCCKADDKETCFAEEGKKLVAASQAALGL

For `Cc1cc(-c2ccc(NC(=O)CN3CCN(CC(=O)O)CCN(CC(=O)O)CC3)c(C)c2)ccc1N=Nc1ccc2c(S(=O)(=O)O)cc(S(=O)(=O)O)c(N)c2c1O` [NEB], the Kd was 48.9 µM and ~50 µM.
